# From patent US8945540B2, “Compositions for enhancing the antibacterial activity of myeloperoxidase and methods of use thereof” (Exoxemis, Inc., priority 2008, dated 2015)
# Read-outs that look alike come from different tables or passages of the source.
# Tests used:
# Staphylococcus aureus [1] = experiment: Microbicidal activity of the myeloperoxidase system (p-MPO, glucose oxidase, glucose) with amino acids in the presence of blood, CFU plate counts; synergy determination from these CFU; format: cell-based; settings: for Average Viability CFU/ml 50 min / Log Reduction 50 min: MPO 4.7 U/ml, GO 4.2 U/ml
# Outline: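 Staphylococcus aureus grown 24 hours in TSB at 35° C was washed in saline and added at a final 2-3×10^7 CFU per mL. The bacteria were mixed in 1 mL reactions with porcine myeloperoxidase, glucose oxidase, amino acids, 150 mM sodium chloride and 3% venous whole blood. Adding glucose to 150 mM started killing. After catalase addition, survivors were counted by serial dilution plating on TSA at 37° C for 24 hours.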
# Staphylococcus aureus [2] = experiment: Control: microbicidal activity of the amino acid or analogue alone (no glucose, MPO, glucose oxidase) in the presence of blood; format: cell-based; settings: for log reduction at 5000 µM: Staphylococcus aureus, 1 h, read-out: Log Reduction 60 min
# From the text: As a control to determine the microbicidal activity of the amino acids alone, the foregoing procedure was followed without replication, except in the absence of glucose, MPO, and glucose oxidase.
# [3] = MPO 100 μg/mL, AA 20 mM, 30 min
# [4] = MPO 100 μg/mL, AA 20 mM, 60 min
# [5] = Table 5, amino acid 5 mM (none: 0 mM), MPO 38 U/ml, GO 33.3 U/ml, blood
# [6] = Table 10, single amino acid 2.5 mM, in the presence of blood, 50 min
# [7] = Table 19, amino acid (racemic, L- or D-form) 2.5 mM, 50 min
# [8] = single amino acid 2.5 mM, blood
# [9] = amino acid alone 5 mM, MPO 0, GO 0, no glucose, blood, without replication
# [10] = Table 4, amino acid 5 mM (none: 0 mM), MPO 38 U/ml, GO 33.3 U/ml, blood
# [11] = Table 11, single amino acid 2.5 mM, in the presence of blood, 50 min
# [12] = Table 13, single amino acid 2.5 mM, in the presence of blood, 50 min
# [13] = Table 14, single amino acid 2.5 mM, in the presence of blood, 50 min
# [14] = L-lysine 5 mM, MPO 9 U/ml, GO 0.833 U/ml, 3% blood
# [15] = L-lysine 5 mM, MPO 9 U/ml, GO 8.33 U/ml, 3% blood
# [16] = L-lysine 5 mM, MPO 38 U/ml, GO 3.3 U/ml, 3% blood
# [17] = L-lysine 5 mM, MPO 38 U/ml, GO 33.3 U/ml, 3% blood
# [18] = L-lysine 20 mM, MPO 38 U/ml, GO 3.3 U/ml, 3% blood
# [19] = L-lysine 20 mM, MPO 38 U/ml, GO 33.3 U/ml, 3% blood
# [20] = L-lysine […], MPO 9 U/ml, GO 0.833 U/ml, 3% blood
# [21] = L-lysine […], MPO 9 U/ml, GO 8.33 U/ml, 3% blood
# [22] = Table 2, amino acid 5 mM (none: 0 mM), MPO 38 U/ml, GO 33.3 U/ml, blood
# [23] = Table 3, amino acid 5 mM (none: 0 mM), MPO 38 U/ml, GO 33.3 U/ml, blood
smiles,measurement,setting,value
CC(C)[C@@H](N)C(=O)O [D-Valine],Log 10 (CFU + 1) Survivors,"Staphylococcus aureus [1]; MPO 25 μg/mL, AA 5 mM, 30 min",4.1
same,Log 10 (CFU + 1) Survivors,"Staphylococcus aureus [1]; MPO 25 μg/mL, AA 5 mM, 60 min",0.0
same,Log 10 (CFU + 1) Survivors,"Staphylococcus aureus [1]; MPO 25 μg/mL, AA […], 30 min",6.7
same,Log 10 (CFU + 1) Survivors,"Staphylococcus aureus [1]; MPO 25 μg/mL, AA […], 60 min",0.0
same,Log 10 (CFU + 1) Survivors,"Staphylococcus aureus [1]; MPO 100 μg/mL, AA 5 mM, 30 min",0.0
same,Log 10 (CFU + 1) Survivors,"Staphylococcus aureus [1]; MPO 100 μg/mL, AA 5 mM, 60 min",0.0
same,Log 10 (CFU + 1) Survivors,Staphylococcus aureus [1]; [3],0.0
same,Log 10 (CFU + 1) Survivors,Staphylococcus aureus [1]; [4],0.0
same,Average Viability CFU/ml 60 min,Staphylococcus aureus [1]; [5],0 CFU/ml
same,Log Reduction 60 min,Staphylococcus aureus [1]; [5],7.4
same,Average Viability CFU/ml 50 min,Staphylococcus aureus [1]; [6],630000 CFU/ml
same,Log Reduction 50 min,Staphylococcus aureus [1]; [6],1.6
same,Average Viability CFU/ml 50 min,Staphylococcus aureus [1]; [7],630000 CFU/ml
same,Log Reduction 50 min,Staphylococcus aureus [1]; [7],1.6
same,Average Viability CFU/ml 50 min,Staphylococcus aureus [1]; [8],630000 CFU/ml
same,Log Reduction 50 min,Staphylococcus aureus [1]; [8],1.6
same,log reduction at 5000 µM,Staphylococcus aureus [2]; [9],0.1
same,Average Viability CFU/ml 60 min,Staphylococcus aureus [2]; [9],20900000 CFU/ml
CC(C)C[C@@H](N)C(=O)O [D-Leucine],Log 10 (CFU + 1) Survivors,"Staphylococcus aureus [1]; MPO 25 μg/mL, AA 5 mM, 30 min",3.8
same,Log 10 (CFU + 1) Survivors,"Staphylococcus aureus [1]; MPO 25 μg/mL, AA 5 mM, 60 min",2.2
same,Log 10 (CFU + 1) Survivors,"Staphylococcus aureus [1]; MPO 25 μg/mL, AA […], 30 min",6.7
same,Log 10 (CFU + 1) Survivors,"Staphylococcus aureus [1]; MPO 25 μg/mL, AA […], 60 min",2.1
same,Log 10 (CFU + 1) Survivors,"Staphylococcus aureus [1]; MPO 100 μg/mL, AA 5 mM, 30 min",2.7
same,Log 10 (CFU + 1) Survivors,"Staphylococcus aureus [1]; MPO 100 μg/mL, AA 5 mM, 60 min",2.0
same,Log 10 (CFU + 1) Survivors,Staphylococcus aureus [1]; [3],1.8
same,Log 10 (CFU + 1) Survivors,Staphylococcus aureus [1]; [4],1.9
same,Average Viability CFU/ml 60 min,Staphylococcus aureus [1]; [10],66550 CFU/ml
same,Log Reduction 60 min,Staphylococcus aureus [1]; [10],2.6
same,Average Viability CFU/ml 50 min,Staphylococcus aureus [1]; [11],313000 CFU/ml
same,Log Reduction 50 min,Staphylococcus aureus [1]; [11],1.9
same,Average Viability CFU/ml 50 min,Staphylococcus aureus [1]; [12],119000 CFU/ml
same,Log Reduction 50 min,Staphylococcus aureus [1]; [12],2.3
same,Average Viability CFU/ml 50 min,Staphylococcus aureus [1]; [13],163500 CFU/ml
same,Log Reduction 50 min,Staphylococcus aureus [1]; [13],2.2
same,Average Viability CFU/ml 50 min,Staphylococcus aureus [1]; [7],215000 CFU/ml
same,Log Reduction 50 min,Staphylococcus aureus [1]; [7],2.1
same,log reduction at 5000 µM,Staphylococcus aureus [2]; [9],0
same,Average Viability CFU/ml 60 min,Staphylococcus aureus [2]; [9],24400000 CFU/ml
NCCCC[C@H](N)C(=O)O [L-Lysine],Average Viability CFU/ml 30 min,Staphylococcus aureus [1]; [14],775000 CFU/ml
same,Average Viability CFU/ml 60 min,Staphylococcus aureus [1]; [14],53000 CFU/ml
same,Log Reduction 30 min,Staphylococcus aureus [1]; [14],1.5
same,Log Reduction 60 min,Staphylococcus aureus [1]; [14],2.7
same,Average Viability CFU/ml 30 min,Staphylococcus aureus [1]; [15],675000 CFU/ml
same,Average Viability CFU/ml 60 min,Staphylococcus aureus [1]; [15],47 CFU/ml
same,Log Reduction 30 min,Staphylococcus aureus [1]; [15],1.6
same,Log Reduction 60 min,Staphylococcus aureus [1]; [15],5.7
same,Average Viability CFU/ml 30 min,Staphylococcus aureus [1]; [16],6050 CFU/ml
same,Average Viability CFU/ml 60 min,Staphylococcus aureus [1]; [16],770 CFU/ml
same,Log Reduction 30 min,Staphylococcus aureus [1]; [16],3.6
same,Log Reduction 60 min,Staphylococcus aureus [1]; [16],4.5
same,Average Viability CFU/ml 30 min,Staphylococcus aureus [1]; [17],7 CFU/ml
same,Average Viability CFU/ml 60 min,Staphylococcus aureus [1]; [17],3 CFU/ml
same,Log Reduction 30 min,Staphylococcus aureus [1]; [17],6.5
same,Log Reduction 60 min,Staphylococcus aureus [1]; [17],6.8
same,Average Viability CFU/ml 30 min,Staphylococcus aureus [1]; [18],6450 CFU/ml
same,Average Viability CFU/ml 60 min,Staphylococcus aureus [1]; [18],620 CFU/ml
same,Log Reduction 30 min,Staphylococcus aureus [1]; [18],3.6
same,Log Reduction 60 min,Staphylococcus aureus [1]; [18],4.6
same,Average Viability CFU/ml 30 min,Staphylococcus aureus [1]; [19],5 CFU/ml
same,Average Viability CFU/ml 60 min,Staphylococcus aureus [1]; [19],5 CFU/ml
same,Log Reduction 30 min,Staphylococcus aureus [1]; [19],6.6
same,Log Reduction 60 min,Staphylococcus aureus [1]; [19],6.6
same,Average Viability CFU/ml 30 min,Staphylococcus aureus [1]; [20],5050000 CFU/ml
same,Average Viability CFU/ml 60 min,Staphylococcus aureus [1]; [20],620000 CFU/ml
same,Log Reduction 30 min,Staphylococcus aureus [1]; [20],0.7
same,Log Reduction 60 min,Staphylococcus aureus [1]; [20],1.6
same,Average Viability CFU/ml 30 min,Staphylococcus aureus [1]; [21],6200000 CFU/ml
same,Average Viability CFU/ml 60 min,Staphylococcus aureus [1]; [21],4950 CFU/ml
same,Log Reduction 30 min,Staphylococcus aureus [1]; [21],0.6
same,Log Reduction 60 min,Staphylococcus aureus [1]; [21],3.7
same,Log 10 (CFU + 1) Survivors,"Staphylococcus aureus [1]; MPO 25 μg/mL, AA 5 mM, 30 min",5.8
same,Log 10 (CFU + 1) Survivors,"Staphylococcus aureus [1]; MPO 25 μg/mL, AA 5 mM, 60 min",1.6
same,Log 10 (CFU + 1) Survivors,"Staphylococcus aureus [1]; MPO 25 μg/mL, AA […], 30 min",6.8
same,Log 10 (CFU + 1) Survivors,"Staphylococcus aureus [1]; MPO 25 μg/mL, AA […], 60 min",3.7
same,Log 10 (CFU + 1) Survivors,"Staphylococcus aureus [1]; MPO 100 μg/mL, AA 5 mM, 30 min",0.9
same,Log 10 (CFU + 1) Survivors,"Staphylococcus aureus [1]; MPO 100 μg/mL, AA 5 mM, 60 min",0.5
same,Log 10 (CFU + 1) Survivors,Staphylococcus aureus [1]; [3],0.8
same,Log 10 (CFU + 1) Survivors,Staphylococcus aureus [1]; [4],0.8
same,Average Viability CFU/ml 60 min,Staphylococcus aureus [1]; [22],0 CFU/ml
same,Log 10 (CFU + 1) Survivors 60 min,Staphylococcus aureus [1]; [22],0.0
same,Log Reduction 60 min,Staphylococcus aureus [1]; [22],7.4
same,Average Viability CFU/ml 50 min,Staphylococcus aureus [1]; [6],16200000 CFU/ml
same,Log Reduction 50 min,Staphylococcus aureus [1]; [6],0.2
same,Average Viability CFU/ml 50 min,Staphylococcus aureus [1]; [11],18900000 CFU/ml
same,Log Reduction 50 min,Staphylococcus aureus [1]; [11],0.2
same,Average Viability CFU/ml 50 min,Staphylococcus aureus [1]; [12],11400000 CFU/ml
same,Log Reduction 50 min,Staphylococcus aureus [1]; [12],0.3
same,Average Viability CFU/ml 50 min,Staphylococcus aureus [1]; [13],16950000 CFU/ml
same,Log Reduction 50 min,Staphylococcus aureus [1]; [13],0.2
same,log reduction at 5000 µM,Staphylococcus aureus [2],0
same,Average Viability CFU/ml 60 min,Staphylococcus aureus [2]; [9],21400000 CFU/ml
N[C@@H](CC(=O)O)C(=O)O [L-Aspartic acid],Log 10 (CFU + 1) Survivors,"Staphylococcus aureus [1]; MPO 25 μg/mL, AA 5 mM, 30 min",7.1
same,Log 10 (CFU + 1) Survivors,"Staphylococcus aureus [1]; MPO 25 μg/mL, AA 5 mM, 60 min",7.0
same,Log 10 (CFU + 1) Survivors,"Staphylococcus aureus [1]; MPO 25 μg/mL, AA […], 30 min",7.0
same,Log 10 (CFU + 1) Survivors,"Staphylococcus aureus [1]; MPO 25 μg/mL, AA […], 60 min",6.9
same,Log 10 (CFU + 1) Survivors,"Staphylococcus aureus [1]; MPO 100 μg/mL, AA 5 mM, 30 min",7.0
same,Log 10 (CFU + 1) Survivors,"Staphylococcus aureus [1]; MPO 100 μg/mL, AA 5 mM, 60 min",5.8
same,Log 10 (CFU + 1) Survivors,Staphylococcus aureus [1]; [3],7.0
same,Log 10 (CFU + 1) Survivors,Staphylococcus aureus [1]; [4],6.8
same,Average Viability CFU/ml 60 min,Staphylococcus aureus [1]; [23],620000 CFU/ml
same,Log 10 (CFU + 1) Survivors 60 min,Staphylococcus aureus [1]; [23],5.8
same,Log Reduction 60 min,Staphylococcus aureus [1]; [23],1.5
same,Average Viability CFU/ml 50 min,Staphylococcus aureus [1]; [6],6900000 CFU/ml
same,Log Reduction 50 min,Staphylococcus aureus [1]; [6],0.6
same,Average Viability CFU/ml 50 min,Staphylococcus aureus [1]; [12],4700000 CFU/ml
same,Log Reduction 50 min,Staphylococcus aureus [1]; [12],0.7
same,log reduction at 5000 µM,Staphylococcus aureus [2]; [9],0.1
same,Average Viability CFU/ml 60 min,Staphylococcus aureus [2]; [9],18600000 CFU/ml
